{"source": "patent US7176222B2", "about": "“Syntheses of ureas” (Cytokinetics, Inc., priority 2004, dated 2007)"}
{"molecule": "CC(=O)N1CCC[C@@H](Oc2cc(F)cc(NC(=O)Nc3cccnc3)c2)C1", "note": "[Example 1, (R)-1-[3-(1-Acetyl-piperidin-3-yloxy)-5-fluoro-phenyl]-3-pyridin-3-yl-urea]", "values": [{"measurement": "melting point", "value": 145, "unit": "°C"}]}
